{"source": "patent US20080064665A1", "about": "“Combination approaches to cancer treatment” (priority 2006, published 2008)", "key": {"[1]": {"system": "H460 human lung cancer xenografts", "assay": "Growth delay and survival of H460 xenografts, PR-104, docetaxel and schedules thereof", "type": "in vivo, CD-1 nude mice", "experimental": "Specific pathogen-free homozygous nu/nu (CD-1) nu/nu [NIH-III] (Charles River Laboratories, Wilmington, Mass.) were provided by the Animal Resources Unit (University of Auckland) at 7 to 9 weeks of age. Mice were housed in groups of 4-7 in a temperature-controlled room (22±2° C.) with a 12-hour light/dark cycle and were fed ad libitum water and a standard rodent diet (Harlan Teklad diet 2018i). All animals were uniquely identifiable by ear tag number. All animal protocols were approved by the Animal Ethics Committee of the University of Auckland (AEC approval C337).\nA single cell suspension was prepared by trypsinisation (1× Trypsin/EDTA) from spinner culture, counted, and suspended in ∝MEM to give required cell concentration, as listed below. Mice were inoculated (100 μL) at a single subcutaneous site (right flank) using a 1 ml syringe with a 26 gauge needle.\nSeven days post-inoculation, tumors were measured three times per week until they reached the treatment size (mean diameter 5.8-8.2 mm; average 7.0 mm). Mean tumor diameter was averaged from the longest diameter (length) multiplied by the perpendicular measurement (width). Tumor diameters were estimated when mean diameter was below 5 mm, and measured with electronic callipers when ≧5 mm.\nTumor volume was calculated using the formula:\nwhere L=length and w=width in mm of the carcinoma.\n(§1) Excess compound was discarded.\nTumor bearing mice were assigned randomly to treatment groups when tumor diameter reached treatment size. Animals were rejected if xenografts show evidence of: (i) attachment to underlying muscle (due to risk of local invasion), (ii) signs of ulceration, or (iii) indolent tumor growth. Drug administration begins on the day of assignment. In general, 0.7-0.8 of the inoculated population is assigned to the experiment. Drug administration was undertaken as outlined above.\nDuring and after treatment, tumor size and body weights were measured regularly. Animals were culled if (i) the average diameter of the tumor exceeds 15 mm (survival end-point), (ii) body weight loss exceeds 15% of pre-treatment value, (iii) there is evidence of prolonged or excessive morbidity, or (iv) tumor ulceration occurred. Each experiment was terminated at day 120 after treatment initiation.\nKaplan-Meier plots were constructed and median survival was calculated (TTE50). The statistical significance of any differences in overall survival between treatment groups and control was analysed by Log Rank P statistical test. The log-rank test was calculated using XLStat Life (Kovach Computing Services Ltd). The statistic significance in overall survival between each treatment group and control was determined by testing the null hypothesis that the survival curves are identical in the two populations.\nThe time for individual tumors to increase in volume by 4 fold relative to treatment day-1 (relative tumor volume×4−RTV^4) was recorded. The median RTV^4 is calculated for each group and the difference in RTV^4 between control and treatment groups is described as the Tumor Growth Delay (TGD) in days. RTV^4 values notmalise for any bias in tumor treatment volume on day-1. The RTV^4 of each treatment group is tested for statistical difference from control group by unpaired t-test and Mann Whitney U test (means and medians, respectively).\nIn circumstances where long-term controls (LTCs) occur, an RTV^4 value equal to the total duration of the experiment is assigned for the purposes of statistical analysis (usually 120 days). Where one or more LTC is present the median RTV^4 of each treatment group is tested for statistical difference from control group by Mann Whitney U test only. The statistical analysis was conducted at a p level of 0.05 (two-tailed). SigmaStat v3.10 was used for the statistical analysis of RTV^4 values. SigmaPlot v9 was used for all graph plots.\nWeight loss nadirs (time independent maxima) were recorded for each treatment group."}, "[2]": {"system": "A2780 human ovarian cancer xenografts", "assay": "Growth delay and survival of A2780 xenografts, PR-104 and docetaxel", "type": "in vivo, CD-1 nude mice", "details": "A2780 xenograft", "experimental": "End-point: After treatment, tumor size and body weights were measured regularly and mice were culled either when the average diameter of the tumor reached 15 mm (end-point), the tumor ulcerated or when the body weight change reached −15%. Experiment was ended and all remaining mice culled 120 days after treatment.\nAnalysis: End-points will be expressed as TTE50, Median RTV^4 and plotted in Kaplan-Meier Plots and analysed by Log Rank P statistical test."}, "[3]": {"system": "SiHa cervical cancer xenografts", "assay": "Excision assay of SiHa xenografts (clonogenic log cell kill)", "type": "in vivo, CD-1 Fox^nu mice", "details": "SN 28343 91.2 mg/kg, SN 29303 375 mg/kg", "experimental": "As for Part 1 except for except where noted below.\nas §1\nDate, body weights (used to adjust injection volume), tumor diameter, unique identifier (tail markings), body weight, and volume to be injected were recorded. Animals were dosed with the test articles i.p. following a defined treatment schedule:\n18 hours after treatment the mice were culled by cervical dislocation and tumors removed by dissection, in a sterile laminar flow hood. Whole tumor weights were recorded. Tumors were minced using scissors or scalpels until a fine minceate was obtained, and up to 500 mg of minceate was transferred into a pre-tiered Falcon®14 ml test tube containing a sterile magnetic spin bar and re-weighed.\nSamples were then incubated in 37° C. water bath for 30 min over a magnetic stirrer.\nAfter incubation any undissociated material was allowed to settle for 1 minute. […] Pellets were re-suspended in 10 ml of medium. Cells/ml was determined using an electronic particle counter (Beckman Coulter Electronics, Z2 model). Samples were then diluted to 1×10^5cells/ml and 6-fold serial dilutions made down to 4.6×10^2cells/ml.\n1 ml of each sample was plated in triplicate for each dilution into appropriately labelled Falcon® P-60 tissue culture dishes containing 4 ml of αMEM+10% FCS+PS.\nWhere possible, all plates were counted; those colonies counted=larger than 50 cells, confirmed with the light microscope. TMTC was recorded for those plates where there were too many colonies to count.\nThe criteria for selecting the best dilution to use for calculating plating efficiency (PE):\nHigher dilution count>100 colonies (average); lower dilution 10-100 colonies, use PE from the dilution with fewer colonies.\nHigher dilution count >100; lower dilution count <20, use average data from both.\nHigher dilution count <100; lower dilution count <20, use PE from the dilution with more colonies.\nHigher dilution count <100; lower dilution count >20, use average data from both. Note: For the 10^5 dilution, take as the “lower limit” colony count a total count of 30, (sum of all replicates)."}, "[4]": {"details": "H460 xenograft, PR-104 652 mg/kg, docetaxel 73 mg/kg, q2w×2"}, "[5]": {"details": "PR-104 652 mg/kg, docetaxel 73 mg/kg, q2w×2"}}, "note": "Where “and” joins values, the source holds several entries; their conditions need not be identical. Equal values may be shown once."}
{"smiles": "CC(=O)O[C@@]12CO[C@@H]1C[C@H](O)[C@@]1(C)C(=O)[C@H](O)C3=C(C)[C@@H](OC(=O)[C@H](O)[C@@H](NC(=O)OC(C)(C)C)c4ccccc4)C[C@@](O)([C@@H](OC(=O)c4ccccc4)[C@H]21)C3(C)C", "note": "[Docetaxel, (2R,3S)-N-carboxy-3-phenylisoserine, N-tert-butyl ester, 13-ester with 5β-20-epoxy-1,2α,4,7β,10β,13α-hexahydroxytax-11-en-9-one 4-acetate 2-benzoate, trihydrate, reference compound]", "values": [{"measurement": "Weight Loss Nadir (%)", "setting": "[1]; H460 xenograft, CD-1 nude mice, mean body weight loss nadir, PR-104 652 mg/kg, docetaxel 73 mg/kg, i.p., q2w×2, trihydrate", "result": "−4.2 ± 1.0", "unit": "%"}, {"measurement": "Unscheduled deaths", "setting": "[1]; H460 xenograft, female CD-1 nude mice, total dose PR-104 652 mg/kg, docetaxel 73 mg/kg, i.p., q2w×2", "result": 0}, {"measurement": "LTC (long term control, failed to reach end-point within duration of experiment)", "setting": "[1]; H460 xenograft, 120 day experiment, PR-104 652 mg/kg, docetaxel 73 mg/kg, q2w×2", "result": 0}, {"measurement": "Median RTV^4 (median time for tumor volume to increase 4-fold)", "setting": "[1]; [4]", "result": 8, "unit": "days"}, {"measurement": "TGD (tumor growth delay; relative gain in median RTV^4 versus control)", "setting": "[1]; [4]", "result": 0, "unit": "%"}, {"measurement": "TTE50 (median time for tumor end-point to occur from day of treatment)", "setting": "[1]; H460 xenograft, end-point >15 mm mean diameter, PR-104 652 mg/kg, docetaxel 73 mg/kg, q2w×2", "result": 14, "unit": "days"}, {"measurement": "Gain TTE50 (improvement in median survival)", "setting": "[1]; H460 xenograft, versus control (11 days), PR-104 652 mg/kg, docetaxel 73 mg/kg, q2w×2", "result": 3, "unit": "days"}, {"measurement": "activity against H460 xenograft (in words)", "setting": "[1]; tumor growth delay and survival end-points", "result": "refractory"}, {"measurement": "Weight Loss Nadir (%)", "setting": "[2]; CD-1 nude mice, PR-104 652 mg/kg, docetaxel 73 mg/kg, i.p., q2w×2, trihydrate", "result": "−8.7±1.5", "unit": "%"}, {"measurement": "LTC (long term control)", "setting": "[2]; 120 day experiment", "result": 0}, {"measurement": "Median RTV^4", "setting": "[2]; [5]", "result": 12, "unit": "days"}, {"measurement": "TTE50", "setting": "[2]; [5]", "result": 14, "unit": "days"}, {"measurement": "TGD (relative gain in median RTV^4 versus control)", "setting": "[2]; PR-104 652 mg/kg, docetaxel 73 mg/kg, q2w×2, trihydrate", "result": "167% and 166.7%"}, {"measurement": "improvement in median tumor growth delay", "setting": "[2]; versus control", "result": 7.5, "unit": "days"}, {"measurement": "Gain TTE50 (improvement in median survival)", "setting": "[2]; versus control (6 days)", "result": 8, "unit": "days"}, {"measurement": "cell kill versus controls in excision assay (in words)", "setting": "[3]; SiHa human cervical tumor xenograft, docetaxel 65 mg/kg i.p.", "result": "inactive"}, {"measurement": "Log Cell Kill versus controls (Mean ± SEM)", "setting": "[3]; SiHa tumors excised 18 hours after treatment, docetaxel 65 mg/kg, i.p.", "result": 0.451}]}
